Assay results as given in patent US5508288A, “Indole derivatives as 5HT1C antagonists” (SmithKline Beecham, p.l.c., priority 1992, dated 1996).

Assays:
5-HT1C receptors [1] = target: T1, 5-HT1C receptors (Rattus norvegicus, UniProt P08909); details: rats; literature (Kennett and Curzon); cited from earlier work
T1 construct: tissue Charles River; host or cells: whole animal, male Sprague Dawley rats (central receptors, in vivo)
T1 sequence (P08909 33-460): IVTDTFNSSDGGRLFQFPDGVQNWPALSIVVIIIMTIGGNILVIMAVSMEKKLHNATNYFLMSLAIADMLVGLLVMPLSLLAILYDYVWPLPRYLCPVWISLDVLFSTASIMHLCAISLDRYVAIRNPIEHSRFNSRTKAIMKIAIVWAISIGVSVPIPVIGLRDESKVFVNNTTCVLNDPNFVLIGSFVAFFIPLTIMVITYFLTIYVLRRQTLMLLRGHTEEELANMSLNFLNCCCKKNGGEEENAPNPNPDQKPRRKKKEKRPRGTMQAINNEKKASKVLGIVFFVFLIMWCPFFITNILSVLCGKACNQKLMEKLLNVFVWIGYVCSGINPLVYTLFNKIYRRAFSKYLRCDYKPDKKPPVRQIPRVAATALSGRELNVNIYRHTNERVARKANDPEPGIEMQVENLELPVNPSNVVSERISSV

5-HT1C -like Receptors = target: T2, 5-HT1C -like Receptors (Rattus norvegicus, UniProt P30994); experiment: Rat fundic strip, antagonism of 5-HT; details: agonist 5-HT, read-out: pA2 (converted)
T2 construct: tissue Charles River; host or cells: stomach fundus strips of male CD rats
T2 sequence (P30994 whole entry): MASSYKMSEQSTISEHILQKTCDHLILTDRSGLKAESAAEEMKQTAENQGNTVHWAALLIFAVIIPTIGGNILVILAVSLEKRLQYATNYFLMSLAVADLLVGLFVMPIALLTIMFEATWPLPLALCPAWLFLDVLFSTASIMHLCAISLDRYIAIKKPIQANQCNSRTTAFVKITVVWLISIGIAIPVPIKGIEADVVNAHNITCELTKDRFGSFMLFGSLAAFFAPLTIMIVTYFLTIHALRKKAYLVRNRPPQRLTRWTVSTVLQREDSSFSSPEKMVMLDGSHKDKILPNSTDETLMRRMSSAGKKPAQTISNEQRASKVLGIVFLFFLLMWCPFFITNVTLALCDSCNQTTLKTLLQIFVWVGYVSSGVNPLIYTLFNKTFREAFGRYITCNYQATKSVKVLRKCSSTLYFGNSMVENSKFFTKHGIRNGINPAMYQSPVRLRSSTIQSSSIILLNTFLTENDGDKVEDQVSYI
Excerpt: The 5-HT receptor in the rat fundic strip (RFS) has been characterised as `5-HT1C -like` as its pharmacology is similar, but not identical, to that of rat 5-HT1C receptor dones.
Whole stomachs were obtained from male CD Rats (Charles River, 250-350 g). Strips of fundus (2 cm×0.5 cm) were cut from the greater curvature and the mucesae carefully removed. Tissues were then further dissected into smaller strips (2 mm×20 mm) which were mounted in organ baths containing oxygensted Tyrodes solution at 37° C. containing indomethacin (3 μM). Preparations were maintained under a resting tension of 0.5 g and exposed to the irreversible MAO inhibitor pargyline (100 μM for 30 minutes followed by washout). Over a 1 h equilibration period, rat fundic strips were challenged with 1×10^-8 M 5-HT at 15 minute intervals until constant responses were obtained. Fifteen minutes later, a complete cumulative concentration-effect curve to the standard agonist 5-HT (1×10^-10 upwards) was constructed to determine the individual sensitivity of each preparation. A further concentration-effect curve to either 5-HT, or other agonists was constructed no sooner than 1 h after completion of the previous curve. When necessary tissues were equilibrated with the antagonists over this one hour period. Antagonists affinities are expressed as pA2 estimates.

[2] = tested on: rat stomach fundus seretonin receptor; details: J. Med. Chem. 1986 29 2415-2418; cited from earlier work
5-HT1C receptors [3] = target: T1, 5-HT1C receptors; experiment: Reversal of mCPP-induced hypolocomotion; assay type: in vivo; details: po, p.o. 1 h pretest, mCPP 7 mg/kg i.p., male Sprague Dawley rats, read-out: ID50 (the source's name)
Excerpt: This effect was blocked by the non specific 5-HT1C /5-HT2 receptor antagonists mianserin, cyproheptadine and metergoline and perhaps by mesulergine. It was not blocked by the 5-HT2 receptor antagonists ketanserin and ritanserin at relevant doses (Kennett and Curzon 1991) nor by antagonists of 5-HT1A, 5-HT1B, 5-HT3, α2 adrenoceptors or dompamine D2 receptors. The effect of mCPP is therefore considered to be mediated by 5-HT1C receptors (Kennett and Curzon 1988) as confirmed by subsequent studies (Lucki et al., 1989). Since mCPP causes hypolocomotion when infused into the cerebral ventricles this effect is probably centrally mediated (Kennett and Curzon 1988).
mCPP-induced hypolocomotion was measured in automated locomotion cages of dimensions 56 cm long×161/2× cm wide×25 cm high and made of black perspex. Two photobeams traversed the width of the cages at either end at ground level. Sequential breaking of these beams allowed the measurement of cage transits.
Male Sprague Dawley rats (200-250 g) (Charles River) were housed in groups of six. They were given drugs orally 1 h pretest and 40 mins later mCPP (7 mg/kg i.p.). After a further 20 min they were placed in individual automated cages in groups of four under red light in an adjacent room. After 10 min the test was terminated. […]

Structure (SMILES)	block of mCPP-induced hypolocomotion (5-HT1C receptors [1])	further results
O=C(c1ccc(F)cc1)C1CCN(CCn2c(=O)[nH]c3ccccc3c2=O)CC1 [ketanserin]	not blocked	–
Cc1cc(NC(=O)Nc2ccc3c(ccn3C)c2)sn1 [Example 5, N-(1-Methyl-5-indolyl)-N'-(3-methyl-5-isothiazolyl) urea]	–	Kb (5-HT1C -like Receptors): 12.6 nM
CCc1c(C)n(C)c2ccc(NC(=O)Nc3cccc(C(F)(F)F)c3)cc12 [N-(1,2-dimethyl-3-ethyl-1H-indol-5-yl)-N'-(3-trifluoromethylphenyl)urea]	–	selectivity for the rat stomach fundus serotonin receptor [2]: shows selectivity
Cn1ccc2cc(NC(=O)Nc3cccnn3)ccc21 [Example 2, N-(1-Methyl-5-indolyl)-N'-(3-pyridazinyl) urea]	–	ED50 (5-HT1C receptors [3]): 47 mg/kg
CN1C[C@H](CNC(=O)OCc2ccccc2)C[C@@H]2c3cccc4c3c(cn4C)C[C@H]21 [metergoline]	blocked	–
CN1CCC(=C2c3ccccc3C=Cc3ccccc32)CC1 [cyproheptadine]	blocked	–
CN1C[C@@H](NS(=O)(=O)N(C)C)C[C@@H]2c3cccc4c3c(cn4C)C[C@H]21 [mesulergine]	perhaps	–
Cc1nc2sccn2c(=O)c1CCN1CCC(=C(c2ccc(F)cc2)c2ccc(F)cc2)CC1 [ritanserin]	not blocked	–
Cn1ccc2cc(NC(=O)Nc3cncnc3)ccc21 [Example 3, N-(1-Methyl-5-indolyl)-N'-(5-pyrimidinyl) urea]	–	ED50 (5-HT1C receptors [3]): 43.7 mg/kg
CN1CCN2c3ccccc3Cc3ccccc3C2C1 (stereo not shown) [mianserin]	blocked	–
